Measured values taken from ChEMBL document CHEMBL1201862, “PubChem BioAssay data set” (2004).
The source made the active and inactive calls.

How the values were obtained:
[1] = biological target: T1, Calpain-2 catalytic subunit (Sus scrofa, UniProt P43367); experiment: m-calpain protease blockers, concentration series – biochemical, fluorogenic peptide substrate, dose response (AID 1420); format: functional
T1 sequence (P43367 whole entry): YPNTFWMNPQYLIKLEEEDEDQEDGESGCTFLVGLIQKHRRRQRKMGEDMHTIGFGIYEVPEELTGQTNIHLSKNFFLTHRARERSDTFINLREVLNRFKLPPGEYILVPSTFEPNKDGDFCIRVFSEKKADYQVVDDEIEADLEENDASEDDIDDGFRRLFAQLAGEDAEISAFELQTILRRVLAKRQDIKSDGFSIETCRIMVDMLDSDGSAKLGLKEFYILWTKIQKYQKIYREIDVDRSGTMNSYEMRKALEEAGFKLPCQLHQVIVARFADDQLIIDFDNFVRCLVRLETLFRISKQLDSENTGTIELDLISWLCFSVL

[2] = biological target: T2, Coagulation factor XII (Homo sapiens, UniProt P00748); format: functional;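 further: activated factor XIIa alpha cleaving a fluorogenic AMC peptide substrate; inhibitor potency from loss of enzyme activity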
T2 sequence (P00748 whole entry): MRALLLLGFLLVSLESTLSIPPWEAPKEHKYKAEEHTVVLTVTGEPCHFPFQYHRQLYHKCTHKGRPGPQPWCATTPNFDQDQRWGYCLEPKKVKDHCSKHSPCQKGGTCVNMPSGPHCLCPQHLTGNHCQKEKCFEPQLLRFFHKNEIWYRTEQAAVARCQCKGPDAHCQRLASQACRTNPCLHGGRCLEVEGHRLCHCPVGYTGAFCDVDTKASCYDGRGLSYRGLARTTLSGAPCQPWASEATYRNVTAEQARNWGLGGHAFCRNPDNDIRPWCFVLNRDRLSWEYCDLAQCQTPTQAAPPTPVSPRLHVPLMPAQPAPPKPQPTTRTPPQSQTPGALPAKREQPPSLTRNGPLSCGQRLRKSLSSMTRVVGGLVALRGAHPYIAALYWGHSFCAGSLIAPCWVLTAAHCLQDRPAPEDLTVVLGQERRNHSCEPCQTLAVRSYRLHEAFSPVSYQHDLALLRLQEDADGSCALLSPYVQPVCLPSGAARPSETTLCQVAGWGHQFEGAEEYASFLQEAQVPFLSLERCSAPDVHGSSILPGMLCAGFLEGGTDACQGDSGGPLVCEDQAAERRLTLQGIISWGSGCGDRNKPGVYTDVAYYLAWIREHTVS

[3] = biological target: Troponin, cardiac muscle (Homo sapiens, UniProt P19429+P45379+P63316); experiment: Fluorescence-based biochemical high throughput dose response assay for activators of the calcium sensitivity of cardiac Regulated Thin Filaments (RTF). [Related pubchem assays (depositor defined):AID493008, AID493018, AID504382, AID504383]; format: protein-complex assay
[4] = test system: H9c2; experiment: cells; format: functional, cell-based; conditions: Rattus norvegicus, H9c2, Myocardium;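 further: confirmatory concentration-response retest of ultra-high-throughput screening hits for modulation of myocardial damage; cell death induced by hydrogen peroxide oxidative stress; compound pretreatment for 60 min then peroxide exposure for 2 h; potency is for protecting the cells against peroxide damage rather than for killing them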
[5] = viability of HCT116 lacking mutant beta-catenin – cell-based, human colon tumor, dose response (AID 1045); format: functional;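 further: HCT116 colon tumor cells with beta catenin knocked out; cells exposed to compound for 60 hours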
[6] = test system: HEK293; experiment: cells; conditions: Homo sapiens
[7] = test system: HEK293; experiment: inhibition of NOD1-driven NF-kB reporter – cell-based, luminescence, uHTS, primary screen (AID 1578); format: functional; conditions: Homo sapiens
[8] = test system: HEK293; experiment: cells; format: functional, cell-based; conditions: Homo sapiens
[9] = test system: HEK293; experiment: NOD2 signaling inhibitors in MDP-stimulated cells, cell-based, uHTS, luminescence (AID 2001); format: functional; conditions: Homo sapiens
[10] = viability of PTEN-deleted HCT116 cells – cell-based, HCT116 PTEN knockout, dose response (AID 1047); format: functional;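 further: HCT116 colon tumor cells with PTEN knocked out; cells exposed to compound for 60 hours before readout; potency for loss of cell viability measured by luminescence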
[11] = test system: HEK293; experiment: cells; conditions: Homo sapiens; remark: listed apart in the source
[12] = test system: HEK293; experiment: cells; format: functional, cell-based; conditions: Homo sapiens; remark: listed apart in the source
[13] = biological target: T3, DNA repair protein RAD52 homolog (Homo sapiens, UniProt P43351); format: functional, biochemical
T3 sequence (P43351 whole entry): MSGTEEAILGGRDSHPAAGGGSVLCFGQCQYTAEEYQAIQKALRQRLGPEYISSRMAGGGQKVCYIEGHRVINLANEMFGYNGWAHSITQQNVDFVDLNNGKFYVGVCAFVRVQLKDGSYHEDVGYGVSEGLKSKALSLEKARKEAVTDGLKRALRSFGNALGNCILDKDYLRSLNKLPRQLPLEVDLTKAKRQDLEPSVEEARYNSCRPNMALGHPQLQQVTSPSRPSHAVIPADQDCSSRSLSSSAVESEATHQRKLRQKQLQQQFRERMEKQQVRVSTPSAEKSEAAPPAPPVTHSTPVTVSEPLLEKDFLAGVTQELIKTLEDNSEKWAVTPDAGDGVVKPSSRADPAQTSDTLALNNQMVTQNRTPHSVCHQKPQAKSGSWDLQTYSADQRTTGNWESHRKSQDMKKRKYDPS

[14] = non-specific 3'UTR reporter inhibition in Clone20-Shn3RL – cell-based, Renilla luciferase, cherry-picked, counter-screen for Shn3 inhibitor project, dose response (AID 624133); format: functional
[15] = loss of viability in HepG2 cells – cell-based, CellTiter-Glo, cherry-picked, cytotoxicity control for Shn3 inhibitor project, dose response (AID 624134); format: functional
[16] = reduction of Shn3 3'UTR-driven luciferase in osteoblasts – cell-based, Clone20 osteoblasts, firefly luciferase, cherry-picked, dose response (AID 624132); format: functional;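 further: firefly luciferase luminescence from reporter carrying the Shn3 3'UTR in osteoblasts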

For `O=C(c1ccc(N2CCCC2=O)cc1)N1CCCCCC1`, the IC50 [1] was 6.62 µM (not active) and the IC50 [2] was > 50 µM (inactive).

For `S=C(Nc1ccc(N2CCOCC2)cc1)Nc1ccc2nc(-c3ccco3)c(-c3ccco3)nc2c1`, the EC50 [3] was 2.92 µM (active) and the IC50 [4] was > 79 µM (inactive).

With `Cc1cc(C)cc(NC(=O)/C=C/c2ccc([N+](=O)[O-])s2)c1` the EC50 [5] was 6.03 µM (active), the EC50 [6] was > 59.7 µM (inactive) and the EC50 [7] was > 20 µM (inactive). For the same compound, the IC50 [8] was 9.79 µM (active), the IC50 [9] was > 20 µM (inactive) and the EC50 [10] was 3.75 µM (active). For the same compound, the EC50 [11] was > 59.7 µM (inactive) and the IC50 [12] was > 20 µM (inactive).

In the case of `CN(C)CCNC(=O)c1cccc2nc3cccc(F)c3nc12`, the AC50 [13] is reported as 4.63 µM (active), the AC50 [14] is reported as 23.8 µM (active) and the EC50 [6] is reported as > 59.6 µM (inactive). The AC50 [15] was 4.69 µM (active), the EC50 [11] was > 59.6 µM (inactive) and the AC50 [16] was 13.7 µM (active).
